Source: PubChem BioAssay AID504468 (NMMLSC, 2011)
The source made the active and inactive calls.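 Rule for the calls: active = compounds with a fitted EC50 of 33 micromolar or lower for the MEP2 GFP signal; inactive = the rest.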

Test system: not listed separately
Assay: yeast MEP2-GFP fusion level changes, TOR pathway – flow cytometry, kMESF, KU SAR set 2, dose response (AID 504468)
Settings: S. cerevisiae MEP2-GFP strain, flow cytometry fluorescence, 3 h; at 100 µM (top of the series)

| Compound | GFP fluorescence (kMESF) |
| --- | --- |
| CNc1nc(N)c([N+](=O)[O-])c(Nc2cccc(OC)c2)n1 | 7.13 kMESF (inactive) |
| CNc1nc(N)c(C(=O)c2ccc(C)c(C)c2)c(Nc2cccc(Cl)c2)n1 | 4.45 kMESF (inactive) |
| CNc1nc(N)c([N+](=O)[O-])c(Nc2cccc(Br)c2)n1 | 7.2 kMESF (inactive) |
| CNc1nc(NC)c([N+](=O)[O-])c(Nc2cccc(Cl)c2)n1 | 4.45 kMESF (inactive) |
| CNc1nc(N)c([N+](=O)[O-])c(Nc2ccccc2Br)n1 | 4.59 kMESF (inactive) |
| CNc1nc(N)c([N+](=O)[O-])c(Nc2ccccc2F)n1 | 4.66 kMESF (inactive) |
| CCNc1nc(N)c([N+](=O)[O-])c(Nc2cccc(Cl)c2)n1 | 12 kMESF (inactive) |

Same assay, conditions: S. cerevisiae MEP2-GFP strain, flow cytometry fluorescence, 3 h; at 300 µM (top of the series)

| Compound | GFP fluorescence (kMESF) |
| --- | --- |
| O=[N+]([O-])c1c(NC2CCCCC2)nc(NCc2ccccc2)nc1N1CCOCC1 | 2.32 kMESF (inactive) |
| CNc1nc(N)cc(Nc2cccc(Cl)c2)n1 | 2.73 kMESF (inactive) |
| CNc1nc(N)cc(Nc2ccccc2F)n1 | 2.73 kMESF (inactive) |
| COC(=O)c1cccc(-c2cc(Nc3cc(C)[nH]n3)nc(NCc3ccccc3)n2)c1 | 2.46 kMESF (inactive) |
| COc1ccccc1-c1cc(Nc2cc(C)[nH]n2)nc(NCc2ccccc2)n1 | 2.59 kMESF (inactive) |
| CNc1nc(N)cc(Oc2cccc(Cl)c2)n1 | 2.25 kMESF (inactive) |
| COc1cccc(-c2cc(Nc3cc(C)[nH]n3)nc(NCc3ccccc3)n2)c1 | 2.66 kMESF (inactive) |
| Cc1cc(Nc2cc(Nc3ccccc3)nc(NCc3ccccc3)n2)n[nH]1 | 2.46 kMESF (inactive) |

Test system: S. cerevisiae MEP2-GFP strain, flow cytometry fluorescence, 3 h
Assay: as above
Settings: not given

| Compound | EC50 |
| --- | --- |
| CNc1nc(N)c([N+](=O)[O-])c(Nc2cccc(Oc3ccccc3)c2)n1 | 34.2 µM (inactive) |
| CCNc1nc(NC2CCCCC2)c([N+](=O)[O-])c(N2CCOCC2)n1 | 189 µM (inactive) |
| Cc1cc(Nc2cc(-c3ccccc3)nc(NCc3ccccc3)n2)n[nH]1 | 107 µM (inactive) |
| CCOC(=O)c1c(N)nc(NC)nc1Nc1cccc(F)c1 | 81.8 µM (inactive) |
